From publication PMC11238337, “Crafting Stable Antibiotic Nanoparticles via Complex Coacervation of Colistin with Block Copolymers” (Biomacromolecules, 2024)

Columns and labels:
A. vinelandii (DSM2290) = assay: Disk diffusion assay (DDA); assay type: cell-based; conditions: 3.0 μg colistin per disk, 24 h at 37 °C
Protocol: (§1) In the DDA, the susceptibility of Escherichia coli (DSM613), Serratia indica (NCIMB 8869), Pseudomonas fluorescens (DSM20030), A. vinelandii (DSM2290), and Bacillus subtilis (DSM10) was tested. Sterile filter disks (VWR) were impregnated (using an automatic pipette) with 3.0 μg of colistin from either colistin sulfate or colistin-C3Ms (at f+ = 0.50) in a concentration above the CMC (at 1.0 mg/mL) and dried under sterile air. Bacterial plates were prepared by freshly pouring bacterial medium until it set. Second, a layer of LB medium, that was premixed with 10 μL of bacteria from overnight cultures, was added. Then, the disks were added, and the plates were incubated for 24 h at 37 °C. The sizes of the inhibition zones were measured and averaged. Experiments were performed in triplicate. With the agar broth dilution testing, it was possible to determine the MIC50 values. LB liquid media in test tubes containing equal amounts of E. coli culture (10 μL of bacteria from overnight cultures to 5 mL of media) was mixed with either colistin or colistin-C3Ms with equal colistin for a concentration between 0.0 and 50 μg/mL. The test tubes were incubated for 24 h at 37 °C and their turbidity was measured with a McFarland turbidimeter. The agar broth dilution experiments were done in duplicate. To determine the MIC50 values, curves were averaged and then fitted with a sigmoid function.

[1] = test system: Escherichia coli (DSM613); assay: Disk diffusion assay (DDA); assay type: cell-based; conditions: 3.0 μg colistin per disk, 24 h at 37 °C, triplicate, averaged
Protocol: as §1

[2] = test system: Pseudomonas fluorescens (DSM20030); assay: Disk diffusion assay (DDA); assay type: cell-based; conditions: 3.0 μg colistin per disk, 24 h at 37 °C
Protocol: as §1

[3] = test system: Serratia indica (NCIMB 8869); assay: Disk diffusion assay (DDA); assay type: cell-based; conditions: 3.0 μg colistin per disk, 24 h at 37 °C
Protocol: as §1

[4] = test system: Bacillus subtilis (DSM10); assay: Disk diffusion assay (DDA), control strain; assay type: cell-based; conditions: 3.0 μg colistin per disk, 24 h at 37 °C; Gram-positive negative control
Protocol: as §1

E. coli = assay: Agar broth dilution testing for MIC50 (turbidity); assay type: cell-based, Escherichia coli; conditions: LB liquid media, 0.0-50 μg/mL colistin, 24 h at 37 °C, McFarland turbidity, duplicate, sigmoid fit; all concentrations below the CMC
Protocol: as §1

proteinase K = target: T1, proteinase K (Parengyodontium album, UniProt P06873); assay: Enzymatic breakdown susceptibility, SAXS read-out; assay type: in vitro ADME; conditions: 24 h at 37 °C
T1 construct: purchased Sigma Aldrich
Protocol: (§3) The enzymatic breakdown susceptibility was analyzed by adding proteinase K (3.4.21.64; Sigma Aldrich), subtilisin (3.4.21.62; Sigma Aldrich), and trypsin (3.4.21.4; Sigma Aldrich) to either colistin (at 3.4 mg/mL) or C3Ms at f+ = 0.50 (total concentration 5.0 mg/mL) at their suppliers’ recommended concentration/ratio for optimized breakdown (molar ratios of enzyme:colistin ≈ 1:130 for proteinase K, ≈ 1:70 for subtilisin and ≈ 1:180 for trypsin). We assessed the difference in susceptibility between noncomplexed colistin and C3Ms. Colistin solution was incubated with enzymes for 24 h at 37 °C, after which polymer solution (kept 24 h at 37 °C) was added while in the other case, premade C3Ms were incubated with enzymes for 24 h at 37 °C. These samples were analyzed using SAXS and modeled, including enzyme scattering (using the Debye form factor since the scattering was too small to use a prolate/oblate ellipsoid form factor, eq 8) to monitor the molecular weight of the complex coacervates after exposure to enzyme degradation.

subtilisin = target: T2, subtilisin (Bacillus licheniformis, UniProt P00780); assay: Enzymatic breakdown susceptibility, SAXS read-out; assay type: in vitro ADME; conditions: 24 h at 37 °C
T2 construct: purchased Sigma Aldrich
Protocol: as §3

[5] = test system: Human embryonic kidney (HEK 293 cells); assay: Toxicity assay (LDH activity, caspase-3 level in medium); assay type: cell-based
Protocol: (§2) Human embryonic kidney (HEK 293 cells) (ATCC, CRL-1573) were cultured in Dulbecco’s modified Eagle medium (DMEM), low glucose (Sigma Aldrich) supplemented with 100 U/mL penicillin and 100 μg/mL streptomycin (15140-122; Gibco, Waltham), 1% GlutaMAX (35050; Gibco), and 20% fetal bovine serum (F9665; Sigma Aldrich). Mesenchymal stem cells (MSC, PT-2501; Lonza) were cultured in Mesenchymal Stem Cell Basel Medium (PT-3238; Lonza)) supplemented with MSCGM SingleQuots (PT-4105; Lonza). Human gingival keratinocytes (HGK) (PCS-200-014; ATCC) were cultured in Dermal Cell Basal Medium (PCS-200-030; ATCC) supplemented with Keratinocytes Growth Kit (PCS-200-040; ATCC). Human umbilical cord endothelial cells (HUVEC, 200p-05n; Cell Applications) were cultured in Endothelial Cell Growth Medium (211-500; Cell Applications). The cell types were seeded in 12-well culture-treated plates at a density of 4 × 10^4 cells/cm^2. Upon confluency (set at time point 0), the cells were exposed to cell-specific growth medium containing formulations with a concentration of 1.0 mg/mL total concentration (0.7 mg/mL colistin) of f+ = 0.50 C3Ms or equivalent concentrations of colistin, and polymer as a control. The medium was changed for both control cells and stimulated cells every two days, 24 h before the harvest of the medium to ensure the same window of accumulated cell-secreted factors in the media. Cytotoxicity assays on lactate dehydrogenase (LDH) activity and caspase-3 level were performed at 24, 48, and 72 h and executed in triplicate. LDH activity in the cell culture media was evaluated using a cytotoxicity detection kit (11644793001; Roche). In short, 50 μL of the collected supernatant was mixed with 50 μL of the reaction mixture and incubated in a dark room at room temperature for 30 min.

[6] = test system: Human gingival keratinocytes (HGK); assay: as above; assay type: cell-based; conditions: 24 h; 0.7 mg/mL colistin
Protocol: as §2

[7] = test system: Mesenchymal stem cells (MSC); assay: as above; assay type: cell-based, human; conditions: 24 h, 0.7 mg/mL colistin
Protocol: as §2, with “The medium was changed for both control cells and stimulated cells every two days, 24 h before the harvest of the medium to ensure the same window of accumulated cell-secreted factors in the media. Cytotoxicity assays on lactate dehydrogenase (LDH) activity and caspase-3 level were performed at 24, 48, and 72 h and executed in triplicate.” left out, “In short, 50 μL of the collected supernatant was mixed with 50 μL of the reaction mixture and incubated in a dark room at room temperature for 30 min.” left out

trypsin = assay: Enzymatic breakdown susceptibility, SAXS read-out; conditions: 24 h at 37 °C, enzyme:colistin ≈ 1:180
Protocol: as §3

T1 sequence (P06873 106-384): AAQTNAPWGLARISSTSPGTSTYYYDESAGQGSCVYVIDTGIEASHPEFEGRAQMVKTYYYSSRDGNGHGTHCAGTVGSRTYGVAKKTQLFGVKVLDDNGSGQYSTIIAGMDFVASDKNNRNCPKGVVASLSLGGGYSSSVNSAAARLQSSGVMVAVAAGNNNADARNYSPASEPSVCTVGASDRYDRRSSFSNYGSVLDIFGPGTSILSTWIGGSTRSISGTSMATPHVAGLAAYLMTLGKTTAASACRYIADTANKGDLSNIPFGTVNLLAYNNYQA
T2 sequence (P00780 106-379): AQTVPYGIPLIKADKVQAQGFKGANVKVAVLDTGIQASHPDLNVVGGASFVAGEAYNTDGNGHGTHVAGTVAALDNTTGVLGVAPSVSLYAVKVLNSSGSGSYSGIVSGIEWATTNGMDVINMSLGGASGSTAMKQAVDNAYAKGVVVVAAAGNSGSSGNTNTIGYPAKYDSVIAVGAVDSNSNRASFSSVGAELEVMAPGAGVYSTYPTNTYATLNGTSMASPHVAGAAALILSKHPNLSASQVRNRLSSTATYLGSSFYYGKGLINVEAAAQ

colistin sulfate
inhibition zone, result in words (A. vinelandii (DSM2290)): immeasurable small inhibition zones
size of inhibition zone (ΔR) [1]: 1.9 ± 0.1 mm
inhibition zone, result in words [2]: not visibly affected
inhibition zone, result in words [3]: grew back over the inhibition zones
inhibition zone, result in words [4]: no inhibition zones could be observed
MIC50 (E. coli): 1.5 ± 0.1 µg/mL
Mw of complex coacervates after proteinase K degradation (proteinase K; enzyme:colistin ≈ 1:130, colistin 3.4 mg/mL digested then complexed with polymer (without C3M protection) or premade C3Ms 5.0 mg/mL digested (with C3M protection), SAXS fit): 0.13 MDa
factor of reduction of average Mw of complex coacervates by proteinase K (proteinase K; versus untreated C3Ms): ≈ 20
Mw of complex coacervates after subtilisin degradation (subtilisin; enzyme:colistin ≈ 1:70, colistin 3.4 mg/mL digested then complexed with polymer (without C3M protection) or premade C3Ms 5.0 mg/mL digested (with C3M protection), SAXS fit): 0.042 MDa
factor of reduction of Mw of complex coacervates by subtilisin (subtilisin; versus untreated C3Ms): ≈ 50
LDH activity versus control ([5]; 24, 48, 72 h, 0.7 mg/mL colistin): no significant differences
caspase-3 level, fold change of control ([5]; day one (24 h), 0.7 mg/mL colistin (1.0 mg/mL total for C3Ms), mean of 3): up to 3 fold
LDH (necrosis), result in words [6]: caused necrosis (LDH)
caspase-3 (apoptosis), result in words [6]: apoptosis (caspase-3)
caspase-3 level versus control [7]: no significant difference
LDH activity, fold change of control ([7]; mean of 3): 2 fold
breakdown by trypsin, result in words (trypsin): ineffective in breaking down colistin
